The results in this text go back to the METLIN SMRT retention time set (Domingo-Almenara et al. 2019).

Each structure is given as a SMILES string.

The data set in a line: gradient 5% acetonitrile 3 min, to 50% in 2 min, to 85% in 15 min, held 3 min, 100 µL/min. Conditions: column: Zorbax Extend-C18 2.1 x 50 mm; eluents: water / acetonitrile, 0.1% formic acid. Summed up: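 Standards, all pure, were combined into mixtures of ~100 molecules and run at 100 μL/min on a Zorbax Extend-C18 column (2.1 × 50 mm, 1.8 μm) with water and acetonitrile, each containing 0.1% formic acid. A coupled quadrupole time-of-flight mass spectrometer operated in positive and negative ionization mode. Retention time values come from computationally picked adduct peaks, each inspected manually.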
In turn, `CCCCn1c(SCc2nc(-c3ccc(OCC)cc3)no2)nc2cc3c(cc2c1=O)OCO3` returned an RP-LC retention time of 1390 s.

The molecule `CCOC(=O)N1CCN(C(=O)CSc2ccc(C)cc2)CC1` showed an RP-LC retention time of 765 s.

For the molecule `O=C(NCC(=O)N1CCCc2ccccc21)c1cccc2[nH]ccc12`, the RP-LC retention time came out at 773 s.

As for `Cc1ccn2c(NC(=O)c3ccc(Cl)cc3)c(-c3ccc(F)cc3)nc2c1`, the RP-LC retention time amounted to 693 s.

`O=c1ccn(-c2cccc(F)c2)nc1-c1nc(-c2ccc3c(c2)OCO3)no1` had an RP-LC retention time of 846 s.

`O=C(CCn1nnc2cc(-c3noc(-c4ccccc4Br)n3)ccc21)N1CCOCC1` gave an RP-LC retention time of 896 s.

`CC(C)c1noc(C2(NC(=O)c3cnccn3)CCCCC2)n1` came in with an RP-LC retention time of 894 s.

`CCCN(C(=O)CC)c1nc(-c2ccc(Br)cc2)cs1` gave an RP-LC retention time of 1410 s.

On to `CCCCNC(=O)c1ccc2nc(CCc3ccc(NC(=O)CC)cc3)[nH]c2c1`, for which the RP-LC retention time came out at 570 s.

`O=S(=O)(Nc1ccc2c(c1)OCCO2)c1ccc2nncn2c1` displayed an RP-LC retention time of 660 s.

Molecule `CCN1CCCn2cc(S(=O)(=O)N(C)c3ccc(C)cc3)cc2C1=O` had an RP-LC retention time of 756 s.

With `CCC(=O)N1CCc2c(sc3ncnc(NCc4ccccc4)c23)C1`, the RP-LC retention time worked out at 790 s.

Consider `Cc1oc(-c2ccc(Cl)cc2)nc1CN1CCC(C(=O)NCCCN(C)Cc2ccccc2)CC1`, for which the RP-LC retention time was determined as 615 s.

Regarding `CC(C)CCN1CC(=O)N2Cc3[nH]c4ccccc4c3C[C@H]2C1=O`, the RP-LC retention time was found to be 825 s.

In the case of `CC1CCCN(c2nc(=O)n(CC(=O)Nc3ccc4c(c3)OCO4)c3ccccc23)C1` (stereo not given), the RP-LC retention time was 796 s.

Regarding `CCn1ccc2sc(C)c(C(=O)N3CCN(c4ccccc4)CC3)c2c1=O`, the RP-LC retention time is 773 s.

Consider `O=C(NCc1ccc(F)cc1)C1CCN(S(=O)(=O)c2ccc3[nH]c(=O)sc3c2)CC1`, for which the RP-LC retention time worked out at 742 s.

For `Cc1cc2cc(CNC(=O)C(C)Oc3ccccc3)ccc2[nH]1` (stereo not given), the RP-LC retention time is 792 s.

`Cc1nnc(-c2ccc3ccn(CC(=O)N4CCN(C5CCCCC5)CC4)c3c2)o1` registered an RP-LC retention time of 620 s.

In turn, `O=c1ccc(N2CCC(NS(=O)(=O)c3cccnc3)C2)nn1CCOc1ccccc1` (stereo not given) came in with an RP-LC retention time of 738 s.

`CC(C)(C)NC(=O)C1CCN(S(=O)(=O)c2cc(-c3noc(C4CCC4)n3)cs2)CC1` showed an RP-LC retention time of 1030 s.

`CCCNC(=O)C1CCCN(c2ccc(SCC(=O)Nc3cccc(C)c3C)nn2)C1` (stereo not given) returned an RP-LC retention time of 665 s.

On to `COc1ccc(Cl)cc1NS(=O)(=O)c1cc(-c2nc(C(C)(C)C)cs2)cs1`, for which the RP-LC retention time was 1350 s.

On to `COc1ccccc1-c1noc(C2CCCN2C(=O)c2ccc(C)s2)n1` (stereo not given), for which the RP-LC retention time is 996 s.

In turn, `CCOC(=O)c1sc(NC(=O)c2ccncc2)nc1-c1ccccc1` showed an RP-LC retention time of 855 s.

For the molecule `Cc1nn(-c2ccc(N3CCCCC3)nn2)c(C)c1CCC(=O)NCCc1ccco1`, the RP-LC retention time came to 660 s.

As for `Cc1ccsc1C(=O)Nc1cnc(-c2ccc(Cl)cc2)nc1`, the RP-LC retention time was determined as 1110 s.

The molecule `CC(C)CCNC(=O)C1CCCN(c2ccc(=O)n(-c3cccc(F)c3)n2)C1` (stereo not given) yielded an RP-LC retention time of 868 s.

On to `COc1ccc(NS(=O)(=O)c2cc(-c3[nH]ncc3C(=O)N3CCCCC3)oc2C)cc1`, for which the RP-LC retention time was 731 s.

In turn, `Cc1ccc(-c2nnc(-c3ccc(Cl)c(S(=O)(=O)N4CCOCC4)c3)o2)cc1` came in with an RP-LC retention time of 1030 s.

`O=C(Cn1nc2n(c1=O)CCCCC2)NCc1ccc2c(c1)OCO2`: the RP-LC retention time stood at 756 s.

For the molecule `CC(=O)N1CCCC1c1nc(C2CN(C(=O)NCc3ccco3)C2)no1` (stereo not given), the RP-LC retention time is 617 s.

The molecule `O=C(CSc1ccc(-n2cccn2)nn1)NCc1cccs1` came in with an RP-LC retention time of 681 s.

`Cc1nn(Cc2nc(-c3ccc(NC(=O)C4CCCO4)cc3)oc2C)c(C)c1C` (stereo not given): the RP-LC retention time was 793 s.

`CN(C)S(=O)(=O)c1ccc(-c2nnc(C(=O)NCCCN3CCCC3=O)o2)cc1`: the RP-LC retention time amounted to 655 s.

The molecule `COc1cccc(-c2noc(CSc3nccn3-c3ccccc3)n2)c1OC` returned an RP-LC retention time of 857 s.

`O=C(NCc1ccncc1)C1CCN(C(=O)c2ncn3c2COC(c2ccc(Cl)cc2)C3)CC1` (stereo not given) came in with an RP-LC retention time of 645 s.

With `CCN1CCN(CC(=O)N2N=C(c3cccs3)CC2c2ccc(F)cc2)C(=O)C1=O` (stereo not given), the RP-LC retention time came to 703 s.

For the molecule `Cc1ccc(Nc2cc(-n3ccnc3)ncn2)cc1C`, the RP-LC retention time stood at 671 s.

In turn, `Cc1ccc(NC(=O)Cn2nc3c(Oc4ccccc4C)nccn3c2=O)c(C)c1` registered an RP-LC retention time of 873 s.

Take `COc1ccc(OC)c(S(=O)(=O)N2CCCC(C(=O)N3CCC(C(N)=O)CC3)C2)c1` (stereo not given): the RP-LC retention time was 635 s.

For the molecule `CCc1c(C2CCN(C(=O)c3cc4ccccc4[nH]3)CC2)noc1N`, the RP-LC retention time is 774 s.

`O=C(c1ccc2ncnc(N3CCCC3)c2c1)N1CCN(c2ccccc2F)CC1` showed an RP-LC retention time of 659 s.

In turn, `COCCCNC(=O)NCc1cccnc1OC` had an RP-LC retention time of 594 s.

`Cc1ccc(N(C)C(=O)C2CCCN2S(=O)(=O)c2cc3c(cc2C)NC(=O)C(C)O3)cc1` (stereo not given) registered an RP-LC retention time of 814 s.

`CC(=O)c1cccc(NC(=O)C(C)Oc2ccc(=O)n(-c3ccc(F)cc3)n2)c1` (stereo not given) displayed an RP-LC retention time of 688 s.

Molecule `Cc1cc(C)cc(N2C=C(C(=O)N3CCOCC3)S(=O)(=O)c3ccccc32)c1` yielded an RP-LC retention time of 826 s.

For the molecule `O=c1ccc(-c2ccccc2Cl)nn1Cc1nc(-c2ccc3c(c2)OCO3)no1`, the RP-LC retention time came out at 996 s.

Regarding `CCn1ccc2cc(S(=O)(=O)N3CCCC(C(=O)NC4CCCCCC4)C3)ccc21` (stereo not given), the RP-LC retention time was 1080 s.

Molecule `O=C1NC(c2cccc([N+](=O)[O-])c2)=CCN1c1ccccc1O` showed an RP-LC retention time of 837 s.

`COc1ccc(CNC(=O)Cn2nc3cc(C)nc(-c4ccccc4)n3c2=O)cc1` showed an RP-LC retention time of 752 s.

For the molecule `CCCn1nnc(NCc2ccc(-c3ccc(Br)cc3Br)o2)n1`, the RP-LC retention time came to 1230 s.

`CCC1CN2C=NC(N3CCN(C(=O)NCc4cccc(OC)c4)CC3)=CC2=N1` (stereo not given) registered an RP-LC retention time of 614 s.

Regarding `CCCc1sc(NC(=O)Cn2nc3c(cc2=O)CCCC3)nc1C(=O)OC`, the RP-LC retention time came out at 840 s.

With `CCNC(=O)c1nc(C(=O)NCCC(C)C)cs1`, the RP-LC retention time came to 771 s.

With `CCOc1ccccc1C(=O)Nc1ccc2c(c1)Sc1ncccc1C(=O)N2C(C)C`, the RP-LC retention time was 871 s.

In the case of `CN(C)c1cccc(C(=O)Nc2cnn(-c3ncc(N4CCCC4)cn3)c2)c1`, the RP-LC retention time came to 749 s.

`Cc1ccc(-c2nc(-c3ccc4oc(C)nc4c3)no2)c(C)c1` returned an RP-LC retention time of 1310 s.

In the case of `O=C(Cc1csc2nc(-c3ccccc3)cn12)Nc1ccc(Cl)cc1F`, the RP-LC retention time is 881 s.

`CCOc1ccccc1-c1nc(CN(c2ccccc2)S(=O)(=O)c2cccs2)c(C)o1` yielded an RP-LC retention time of 1160 s.

In turn, `O=C(N[C@H]1C[C@@H]2C[C@H]1N(S(=O)(=O)c1ccc3c(c1)CCC3)C2)c1cccs1` yielded an RP-LC retention time of 943 s.

As to `Cc1ccc2[nH]c(C(=O)NC3CCN(C)CC3)cc2c1`, the RP-LC retention time came to 845 s.

`CCC(C(=O)N1CCN(c2cc(C)n3cnnc3n2)CC1)c1ccccc1` (stereo not given) had an RP-LC retention time of 864 s.

With `O=C(Nc1ccc2c(c1)OCCO2)c1cn(-c2cc(N3CCCC3)ncn2)cn1`, the RP-LC retention time amounted to 795 s.

`CC1(C(=O)NCc2ccc(F)cc2)CCCN(C(=O)Nc2cccc(Cl)c2)C1` (stereo not given) displayed an RP-LC retention time of 967 s.

In turn, `O=C(Nc1ccccc1)N1CCC2(CC1)CC(N1CCOCC1)CCO2` (stereo not given) returned an RP-LC retention time of 583 s.

In turn, `Cc1cc(=O)n(CC(=O)N2CCN(c3ccc(F)cc3)CC2)c(-c2ccc(F)cc2)n1` had an RP-LC retention time of 1010 s.

Take `CCOC(=O)c1cccc(Nc2c(-c3ccc(C(=O)OC)cc3)nc3cnccn23)c1`: the RP-LC retention time was 902 s.

`Cc1ccc(Nc2ccc(NC(=O)C3CCCC3)cc2)nn1` showed an RP-LC retention time of 566 s.

`CCCn1ncc(N2CCC(C(=O)NCCCOC(C)C)CC2)cc1=O` showed an RP-LC retention time of 650 s.

The molecule `CCn1c(=O)c(N2CCC(NC(=O)Nc3ccc(OC)c(OC)c3)CC2)nc2ccccc21` came in with an RP-LC retention time of 785 s.

Consider `Cc1cccc2c1CCN(C(=O)c1ccco1)[C@@H]2C`, for which the RP-LC retention time amounted to 931 s.

For `CCCc1nnc(NC(=O)C2CC(=O)N(CCc3c[nH]c4ccc(Cl)cc34)C2)s1` (stereo not given), the RP-LC retention time is 764 s.

Molecule `CC(C)CC(=O)Nc1ccc(-n2cnc(C(=O)NC3CCCCCC3)c2)nc1` registered an RP-LC retention time of 865 s.

`Oc1ccccc1CN1CCN(c2cc(-c3ccccc3)[nH]n2)CC1` registered an RP-LC retention time of 610 s.

For the molecule `Cc1nc2nc(-c3ccc(C(C)(C)C)cc3)nn2c(C)c1CC(=O)Nc1ccc(Br)cc1`, the RP-LC retention time stood at 1220 s.

As for `Cc1[nH]c(C)c(S(=O)(=O)N2CCN(c3ccccn3)CC2)c1C(=O)N1CCCC1`, the RP-LC retention time worked out at 586 s.

Molecule `CC(C)NC(=O)c1n[nH]c2c1CCCCCC2` displayed an RP-LC retention time of 754 s.

`COc1ccc2[nH]c(=O)c(CCC(=O)NCCCN3CCCCC3)cc2c1` showed an RP-LC retention time of 586 s.

In the case of `CCOC(=O)N1CCN(c2ncc3c(n2)CC(C)CC3=O)CC1` (stereo not given), the RP-LC retention time was 842 s.
